Assay results from US20100189675A1, “COSMETIC USE OF AN IMIDOPERCARBOXYLIC ACID DERIVATIVE AS DESQUAMATING AGENT” (L'Oreal, priority 2007, published 2010).

Test system: corneocytes
Assay: In vitro test of desquamating efficacy (corneocytes liberated, expressed as protein concentration)
Assay type: cell-based
Method: An in vitro test was carried out in order to determine the efficacy of phthalimidoperoxycaproic acid compared with a composition comprising 30% of glycolic acid and 70% of water. The number of corneocytes liberated is expressed as protein concentration. After applying a composition comprising 17% of phthalimidoperoxycaproic acid, the protein concentration is about 320 μg/ml, while it is about 210 μg/ml for the composition comprising glycolic acid.

`O=C(O)CO` [glycolic acid, reference compound] was tested, and the “number of corneocytes liberated expressed as protein concentration” value (composition comprising 30% of glycolic acid and 70% of water) was “about 210 μg/ml”.
For `O=C(CCCCCN1C(=O)c2ccccc2C1=O)OO` [phthalimidoperoxycaproic acid], the “number of corneocytes liberated expressed as protein concentration” value (after applying a composition comprising 17% of phthalimidoperoxycaproic acid) was “about 320 μg/ml” and the “desquamating efficacy compared with reference” value (compared with glycolic acid (AG) at 30%) was “high desquamating efficacy greater than the reference glycolic acid”.
